Source: PubChem BioAssay AID2202554 (NIEHS Division of Translational Toxicology (DTT))
Inconclusive results are not listed. Calls of active or inactive are those of the source. How the calls were made is not given here.

Each molecule was assayed on S. typhimurium/E. coli reverse mutation, colony counts (assay: Bacterial reverse mutation test (aka Ames test) summary data).
Outline: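 Revertant colony counts on plates, compared with untreated controls, after about two days of growth. Exposure with or without liver S9 (rat/hamster/mouse), dose range per strain, 20-min 37° C preincubation or direct plate incorporation. Strains: his⁻ Salmonella, trp⁻ E. coli WP2 uvrA pKM101.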
In the case of CC/C=C\C/C=C\C/C=C\CCCCCCCC(=O)O, the outcome was “active; weakly positive”. With CCOC(C)(C)C the outcome was “inactive; negative”. CC(=O)OCc1ccc2c(c1)OCO2 was tested, and the outcome was “inactive; negative”. In the case of CC(=O)Nc1cccc(O)c1, the outcome was “inactive; negative”. With CCCCOC(=O)COc1ccc(Cl)cc1Cl the outcome was “inactive; negative”. Cc1ccc(N)cc1C was tested, and the outcome was “active; positive”. For CC=CC=CC=O, the outcome was “active; positive”. Nc1ccc(N=Nc2ccc(-c3ccc(N=Nc4c(S(=O)(=O)O)cc5cc(S(=O)(=O)O)c(N=Nc6ccccc6)c(O)c5c4N)cc3)cc2)c(N)c1 was tested, and the outcome was “active; positive”. For Nc1ccccc1C(=O)OC1CCCCC1, the outcome was “inactive; negative”. In the case of CC(C)OC(=O)Cc1ccccc1, the outcome was “inactive; negative”. With Nc1ccc(C(=O)O)cc1 the outcome was “inactive; negative”. [CH3][Pb]([CH3])([CH3])[CH3] was tested, and the outcome was “inactive; negative”. In the case of CC(C)CCON=O, the outcome was “active; positive”. For CC1(C)[C@@H]2CC[C@@]1(C)C(=O)C2, the outcome was “inactive; negative”. In the case of [N-]=[N+]=[N-], the outcome was “active; positive”. For Cc1ccc(C)c([N+](=O)[O-])c1, the outcome was “active; positive”. In the case of C=CCCC, the outcome was “inactive; negative”. CCO was tested, and the outcome was “inactive; negative”. With CCCN(CCC)CCC the outcome was “inactive; negative”. In the case of CNCCS(=O)(=O)O, the outcome was “inactive; negative”. In the case of NC(=O)NNC(N)=O, the outcome was “inactive; negative”. With CCCCCCCCCCCCCCCCCC(=O)O the outcome was “inactive; negative”. With O=C(O)c1ccc(S(=O)(=O)N(Cl)Cl)cc1 the outcome was “active; positive”. In the case of CCCCC(=O)N(C)C, the outcome was “inactive; negative”. In the case of COC(=O)C(c1ccccc1)C1CCCCN1 (stereo unspecified), the outcome was “inactive; negative”. For O=C(NCNC(=O)NC1C(=O)NC(=O)N1CO)NC1C(=O)NC(=O)N1CO (stereo unspecified), the outcome was “active; positive”. In the case of CCn1cc(C(=O)O)c(=O)c2ccc(C)nc21, the outcome was “active; weakly positive”. O.O=C([O-])c1ccccn1.O=C([O-])c1ccccn1.O=C([O-])c1ccccn1.[Cr+3] was tested, and the outcome was “inactive; negative”. OC1CCCCC1 was tested, and the outcome was “inactive; negative”. With Nc1ccc([As](=O)(O)O)cc1 the outcome was “inactive; negative”. CCOC(=O)c1ccccc1N was tested, and the outcome was “inactive; negative”. With C=CC=O the outcome was “active; weakly positive”. O=C1c2cccc(O)c2C(=O)c2c(O)cccc21 was tested, and the outcome was “active; weakly positive”. With CC(C)Br the outcome was “active; positive”. With CCN(Cc1cccc(S(=O)(=O)[O-])c1)c1ccc(C(=C2C=CC(=[N+](C)C)C=C2)c2ccc(N(CC)Cc3cccc(S(=O)(=O)O)c3)cc2)cc1 the outcome was “active; positive”. In the case of COc1ccc2c(c1OC)C(=O)O[C@@H]2[C@H]1c2cc3c(cc2CCN1C)OCO3, the outcome was “inactive; negative”. COP(=O)(OC)OC=C(Cl)Cl was tested, and the outcome was “active; positive”. For C=C[C@H]1CN2CC[C@H]1C[C@@H]2[C@@H](O)c1ccnc2ccc(OC)cc12, the outcome was “inactive; negative”. For CC1CCCCC1CO (stereo unspecified), the outcome was “inactive; negative”. In the case of Cc1cc(C)cc([N+](=O)[O-])c1, the outcome was “active; positive”. For Cc1cccc(O)c1, the outcome was “inactive; negative”. O=[N+]([O-])c1c(Cl)cc(Cl)cc1Cl was tested, and the outcome was “inactive; negative”. In the case of OCCC(F)(F)C(F)(F)C(F)(F)C(F)(F)C(F)(F)C(F)(F)C(F)(F)C(F)(F)C(F)(F)C(F)(F)F, the outcome was “inactive; negative”. For Oc1cc(Cl)ccc1Cl, the outcome was “inactive; negative”. In the case of C=CC(=O)NCO, the outcome was “inactive; negative”. In the case of COCCOCCOC, the outcome was “inactive; negative”. In the case of Clc1c(Cl)c(Cl)c2ccccc2c1Cl, the outcome was “inactive; negative”. O=C1c2ccccc2C(=O)c2ccccc21 was tested, and the outcome was “active; positive”. For Cc1ccccc1O, the outcome was “inactive; negative”. With O=C(NC(S)c1nc2ccccc2s1)NC(S)c1nc2ccccc2s1 (stereo unspecified) the outcome was “active; positive”. For Cc1cc(C)nc(NS(=O)(=O)c2ccc(N)cc2)n1, the outcome was “inactive; negative”.
